Measured values published in US4665019A, “Method for measuring the plasma levels of an inhibitor of (Na^+ +K^ +” (University of Maryland, priority 1983, dated 1987).

Columns and labels:
[1] = tested on: ATP generating reaction system; assay: Efficacy of the ATP generating reaction system (rates of NADH oxidation on addition of ADP); type: biochemical; conditions: at the concentrations shown in FIGS. 1a and 1b; addition of 10-50 μM ADP
[2] = target: T1, canine kidney (Na^+ +K^+)ATPase (Canis lupus familiaris, UniProt P50997); assay: (Na+ +K+)ATPase activity assay coupled to NADH oxidation (A340); type: biochemical, canine (dog); conditions: for time course of inhibition of (Na^+ +K^+)ATPase activity: FIG. 1a/1b, continuous recording of A340, 37° C.
T1 construct: suspending canine kidney (Na^+ +K^+)ATPase; purchased Sigma Chemical; host or cells: canine kidney (tissue-derived membrane preparation)
Experimental: The (Na^+ +K^+)ATPase preparation employed in the assay of this example comprised unsealed membrane sheets as described in Jorgensen, P. L. Biochim. Biophys. Acta 356: 36-52 (1974). Thus, it was not able to distinguish between an external and an internal site of action for the inhibitor.
The ATPase assay solution employed contained 400 μl of an ATPase cocktail and 580 μl of water. The ATPase cocktail was such that the final reaction conditions were (in 1.0 ml) as follows: 20 mM KCl; 100 mM NaCl; 4.5 mM MgSO4; 5 mM EGTA; 3 mM Na2 ATP; 1.2 mM tricyclohexylammonium phosphoenolpyruvate (PEP), 0.25 NADH, 40 mM trimethylaminoethanesulphonic acid (TES)-Tris, pH 7.4; 1.2 units lactate dehydrogenase (LDH); and 1.2 units pyruvate kinase (PK), (ATP, PEP, NADH, LDH and PK were purchased from Boehringer Mannheim Biochemicals; LDG and PK enzymes were obtained as glycerol suspensions.)
The (Na^+ +K^+)ATPase suspension was prepared for assay by suspending canine kidney (Na^+ +K^+)ATPase (obtained from Sigma Chemical having a specific activity of 5-6 μmol per min per mg protein and containing a ouabain-insensitive Mg^2+ -ATPase activity which was less than 2% of the total steady-state ATPase activity) in 500 μM Na4 EDTA, 10 mM (TES)-Tris pH 7.4, at a protein concentration of 150 μg/ml. The resuspended enzyme was incubated at 25° C. for 3 hours and then stored on ice.
The assay was initiated by the rapid addition of 20 μl of ATPase suspension (3 μg protein) to 980 μl of ATPase assay solution in a 1.0 ml cuvette at 37° C. The decrease in ultraviolet light absorbance at 340 nm (A340) due to NADH oxidation (ε=6.22×10^3 1 mol^-1 cm^-1) was continuously recorded using a Beckman Model 25 UV-VIS recording spectrophotometer.
FIG. 1a illustrates ATPase inhibition by ouabain. […] The control contained an appropriate quantity of DMSO.
FIG. 1b illustrates ATPase inhibition by vanadate. […] The control contained in appropriate quantity of water. […]
Percent inhibition was calculated as: [formula]

SMILES	effect on the efficacy of the ATP generating reaction system [1]	time course of inhibition of (Na^+ +K^+)ATPase activity [2]	Ki ([2]; from steady-state levels of (Na^+ +K^+)ATPase activity at various vanadate concentrations, 37° C.) [µM]
C[C@@H]1O[C@@H](O[C@H]2C[C@@H](O)[C@]3(CO)[C@H]4[C@H](O)C[C@]5(C)[C@@H](C6=CC(=O)OC6)CC[C@]5(O)[C@@H]4CC[C@]3(O)C2)[C@H](O)[C@H](O)[C@H]1O [ouabain]	Neither ouabain nor vanadate, at the concentrations shown in FIGS. 1a and 1b, had a significant effect	no significant effect on the reaction for the first 30 seconds, and thereafter causes a progressive, dose-dependent increase in inhibition	
[Na+].[Na+].[Na+].[O]=[V]([O-])([O-])[O-] [vanadate, Na3 VO4]	Neither ouabain nor vanadate, at the concentrations shown in FIGS. 1a and 1b, had a significant effect	the effect of vanadate was apparent in the first few seconds of the reaction	0.9
